Experiment [1] concerns EKVX (non-small cell lung cancer). Put plainly: NCI in vitro anticancer assay, growth inhibition, EKVX. The conditions noted are these: Homo sapiens, read-out: GI50 (concentration causing 50% cell growth inhibition). It is filed as cell-based. From the text: (§1) The tested human tumor cell lines are as follows: (1) CCRF-CEM, K-562, MOLT-4 and SR of leukemia; (2) A549/ATCC, EKVX, HOP-62, HOP-92, NCI-H226, NCI-H23, NCI-H322M, NCI-H460a and NCI-H522 of non-small cell lung cancer; (3) COLO 205, HCC-2998, HCT-116, HCT-15, HT29, KM12 and SW-620 of colon cancer; (4) SF-268, SF-295, SF-539, SNB-19, SNB-75 and U251 of CNS cancer; (5) LOX IMVI, MALME-3M, M14, SK-MEL-2, SK-MEL-28, SK-MEL-5, UACC-257 and UACC-62 of melanoma; (6) IGROV1, OVCAR-3, OVCAR-4, OVCAR-5, OVCAR-8 and SK-OV-3 of ovarian cancer; (7) 786-0, A498, ACHN, CAKI-1, RXF 393, SN12C, TK-10 and UO-31 of renal cancer; (8) […] and DU-145 of prostate cancer; and (9) MCF7, MCF7/ADR-RES, MDA-MB-231/ATCC, HS 578T, MDA-MB-435, MDA-N, BT-549 and T-47D of breast cancer.
(§2) For each compound, the dose-response curves for each tested tumor cell line were measured with five different dose concentrations, and the concentration causing 50% cell growth inhibition (GI50) compared with the control was calculated.

Experiment [2] concerns NCI-H522 (non-small cell lung cancer). Description: NCI in vitro anticancer assay, growth inhibition, NCI-H522. The note with it: Homo sapiens, read-out: GI50 (concentration causing 50% cell growth inhibition). It is filed as cell-based.
Description: as §1, §2

The subject of a further experiment is COLO 205 (colon cancer). Put plainly: NCI in vitro anticancer assay, growth inhibition, COLO 205. It is filed as cell-based. The note with it: Homo sapiens, read-out: GI50 (concentration causing 50% cell growth inhibition).
Description: as §1, §2

A further experiment has as its system HT29 (colon cancer). Put plainly: NCI in vitro anticancer assay, growth inhibition, HT29. It is filed as cell-based. The conditions noted are these: Homo sapiens, HT-29, read-out: GI50 (concentration causing 50% cell growth inhibition).
Description: as §1, §2

For the next experiment, the system named is SF-268 (CNS cancer). Put plainly: NCI in vitro anticancer assay, growth inhibition, SF-268. Format: cell-based. The conditions noted are these: Homo sapiens, read-out: GI50 (concentration causing 50% cell growth inhibition).
Description: as §1, §2

The next experiment has as its system U251 (CNS cancer). Description: NCI in vitro anticancer assay, growth inhibition, U251. It is filed as cell-based. The conditions noted are these: Homo sapiens, U-251, read-out: GI50 (concentration causing 50% cell growth inhibition).
Description: as §1, §2

The subject of the next experiment is RXF 393 (renal cancer). Put plainly: NCI in vitro anticancer assay, growth inhibition, RXF 393. Format: cell-based. The conditions noted are these: Homo sapiens, read-out: GI50 (concentration causing 50% cell growth inhibition).
Description: as §1, §2

For a further experiment, the system named is SN12C (renal cancer). Put plainly: NCI in vitro anticancer assay, growth inhibition, SN12C. Format: cell-based. The note with it: Homo sapiens, read-out: GI50 (concentration causing 50% cell growth inhibition).
Description: as §1, §2

For experiment [3], the system named is 60 human tumor cell lines. Description: NCI in vitro anticancer assay, mean over 60 cell lines. It is filed as cell-based. The conditions noted are these: mean values over 60 cell lines tested.
Description: as §1, §2
Table 1 summarizes the respective GI50 values and mean GI50 values for the tested compounds in relation to all the 60 tumor cell lines.

Experiment [4] can be described thus: In vivo hollow fiber assay (NCI). The note with it: intraperitoneal (IP) and subcutaneous (SC) samples, total score of 20 or more considered active. Here is the method:
The compounds obtained from the above Synthesis Ex. 1 and Synthesis Ex. 2 were further examined in an in vivo hollow fiber assay conducted by the National Cancer Institute (NCI) in the United States, in which an intraperitoneal (IP) sample and a subcutaneous (SC) sample were tested. In this assay, if a tested compound is observed to have a total score of IP score and SC score […]20, it will be considered to be active and to have the potential as an anti-tumor/anti-cancer drug candidate. According to the confidential report of the Developmental Therapeutics Program issued by NCI on Apr.

In the case of `COc1cc2c(cc1OC(=O)c1cc3ccccc3[nH]1)N=C[C@@H]1CCCN1C2=O` [Synthesis Ex. 1], the GI50 in experiment [1] stood at 674 nM; in [2], 198 nM; with COLO 205 (colon cancer) it was 196 nM; in the experiment on HT29 (colon cancer), 185 nM; in the experiment on SF-268 (CNS cancer), 669 nM; with U251 (CNS cancer) it was 302 nM. The GI50 with RXF 393 (renal cancer) is 155 nM; in the experiment with SN12C (renal cancer), 210 nM; in experiment [3] (Homo sapiens, 60 cell), no more than 380 nM; in [3] it was 380 nM. Besides, in experiment [4], the “total score of IP score and SC score” value stood at 22.
With `COc1cc2c(cc1OCCCNC(=O)c1cc3ccccc3[nH]1)N=C[C@@H]1CCCN1C2=O` [Synthesis Ex. 2], the GI50 in experiment [1] came out at 604 nM; in [2], 14.1 nM; in the experiment on COLO 205 (colon cancer) it was 118 nM; in the experiment with HT29 (colon cancer), 274 nM; in the experiment with SF-268 (CNS cancer), 27 nM; with U251 (CNS cancer), 39.4 nM. In addition, the GI50 in the experiment on RXF 393 (renal cancer) came to 25 nM; with SN12C (renal cancer) it was 410 nM. In addition, the “total score of IP score and SC score” value in experiment [4] is given as 30.

These data come from US6939869B2, “Pyrrolo[2,1-c][1,4] benzodiazepine-indole derivatives, their preparation process, and uses of the same” (Kaohsiung Medical University, priority 2002, dated 2005).
